From patent publication US7713971B2, “1,2,4-triazine derivatives, preparation and use thereof in human therapy” (Pierre Fabre Medicament, priority 2005, dated 2010)
Read-outs that look alike come from different tables or passages of the source.

Tests used:
human PPARα = target: T1, human PPARα (Homo sapiens, UniProt Q07869); experiment: Reporter gene transactivation, hPPAR-GAL4 alpha; format: cell-based; details: transfected Cos-7 cells, Gal-4 luciferase reporter, 24 hours treatment
T1 construct: expressed in transfected cells; host or cells: Cos-7 cells (ATCC, CRL-1651)
T1 sequence (Q07869 239-466 limits assumed): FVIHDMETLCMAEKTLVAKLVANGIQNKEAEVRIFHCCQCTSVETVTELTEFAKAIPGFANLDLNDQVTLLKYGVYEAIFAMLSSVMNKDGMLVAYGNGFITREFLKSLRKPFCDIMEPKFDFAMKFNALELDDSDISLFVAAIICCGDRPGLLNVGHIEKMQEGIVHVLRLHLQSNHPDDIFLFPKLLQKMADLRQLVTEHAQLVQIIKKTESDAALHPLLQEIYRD

human PPARγ = target: T2, human PPARγ (Homo sapiens, UniProt P37231); experiment: Reporter gene transactivation, hPPAR-GAL4 gamma; format: cell-based; details: transfected Cos-7 cells, Gal-4 luciferase reporter, 24 hours treatment
T2 construct: expressed in transfected cells; host or cells: Cos-7 cells (ATCC, CRL-1651)
T2 sequence (P37231 238-503 limits assumed): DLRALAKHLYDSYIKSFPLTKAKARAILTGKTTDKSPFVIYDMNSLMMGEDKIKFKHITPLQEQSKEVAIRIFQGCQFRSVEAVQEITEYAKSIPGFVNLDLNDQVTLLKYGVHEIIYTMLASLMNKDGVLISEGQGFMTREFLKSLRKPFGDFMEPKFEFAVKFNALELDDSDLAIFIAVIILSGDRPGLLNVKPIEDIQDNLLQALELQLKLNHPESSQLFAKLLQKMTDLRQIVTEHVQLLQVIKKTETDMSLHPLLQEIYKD

[1] = system: insulin-resistant male rat (Ico: ZUCKER-fa/fa); experiment: Normalization of metabolic parameters (cholesterol, plasma triglycerides) in insulin-resistant rat; format: in vivo; details: oral route, once per day for four days, Zucker fa/fa rat unfed 16-18 hours; for change in vivo at 10 mg/kg / change in vivo at 2.5 mg/kg: 96 h
Experimental: Normalization of metabolic parameters (cholesterol, plasma triglycerides) in an insulin-resistant male rat (Ico: ZUCKER-fa/fa), unfed for 16-18 hours, after treatment by oral route, once per day for four days, with the compounds to be evaluated or their administration vehicle.
These metabolic parameters are measured by spectrophotometry at the beginning and the end of each animal's treatment.

[2] = at 10 mg/kg, read-out: Plasma cholesterol
[3] = at 10 mg/kg, read-out: Plasma triglycerides

Row | Structure (SMILES) | EC50 (human PPARα) [µM] | EC50 (human PPARγ) [µM] | also measured
1 | CCCCCCCn1nc(NCCCc2ccc(SC(C)(C)C(=O)OCC)cc2)c(=O)n(C)c1=O [Example 124, Ethyl 2-{4-[3-(2-heptyl-4-methyl-3,5-dioxo-2,3,4,5-tetrahydro-[1,2,4]triazin-6-ylamino)propyl]-phenylsulfanyl}-2-methyl-propionate] | 0.3 to 1 | > 10 | 
2 | CCCCCCCn1nc(OCCCCOc2cccc(SC(C)(C)C(=O)OCC)c2)c(=O)n(C)c1=O [Example 37, Ethyl 2-{3-[4-(2-heptyl-4-methyl-3,5-dioxo-2,3,4,5-tetrahydro-[1,2,4]triazin-6-yloxy)-butoxy]-phenylsulfanyl}-2-methyl-propionate] | > 10 | ~10 | 
3 | CCCCCCCn1nc(OCCCOc2cccc(SC(C)(C)C(=O)OCC)c2)c(=O)n(C)c1=O [Example 34, Ethyl 2-{3-[3-(2-heptyl-4-methyl-3,5-dioxo-2,3,4,5-tetrahydro-[1,2,4]triazin-6-yloxy)-propoxy]-phenylsulfanyl}-2-methyl-propionate] | > 10 | > 10 | 
4 | CCCCCCCn1nc(OCCCCOc2cccc(OC(C)(C)C(=O)OCC)c2)c(=O)n(C)c1=O [Example 36, Ethyl 2-{3-[4-(2-heptyl-4-methyl-3,5-dioxo-2,3,4,5-tetrahydro-[1,2,4]triazin-6-yloxy)-butoxy]-phenoxy}-2-methyl-propionate] | 0.3 to 1 | 3 to 10 | 
5 | CCCCCCCn1c(=O)c(NCCCCc2cccc(SC(C)(C)C(=O)OCC)c2)nn(Cc2ccccc2)c1=O [Example 99, Ethyl 2-{3-[4-(2-benzyl-4-heptyl-3,5-dioxo-2,3,4,5-tetrahydro-[1,2,4]triazin-6-ylamino)-butyl]-phenylsulfanyl}-2-methyl-propionate] | > 10 | 3 to 10 | 
6 | CCOC(=O)C(C)(C)Oc1ccc(OCCCNc2nn(CCCC(F)(F)F)c(=O)n(C)c2=O)cc1 [Example 44, Ethyl 2-methyl-2-(4-{3-[4-methyl-3,5-dioxo-2-(4,4,4-trifluoro-butyl)-2,3,4,5-tetrahydro-[1,2,4]triazin-6-ylamino]-propoxy}-phenoxy)-propionate] | > 10 | 3 to 10 | 
7 | CCOC(=O)C(C)(C)Oc1ccc(OCCCNc2nn(C)c(=O)n(CCCC(F)(F)F)c2=O)cc1 [Example 46, Ethyl 2-methyl-2-(4-{3-[2-methyl-3,5-dioxo-4-(4,4,4-trifluoro-butyl)-2,3,4,5-tetrahydro-[1,2,4]triazin-6-ylamino]-propoxy}-phenoxy)-propionate] | 0.3 to 1 |  | change in vivo at 10 mg/kg [1, 2]: -13%; change in vivo at 10 mg/kg [1, 3]: -32%
8 | CCCCCCCn1c(=O)c(NCCCCOc2ccc(OC(C)(C)C(=O)OCC)cc2)nn(C)c1=O [Example 50, Ethyl 2-{4-[4-(4-heptyl-2-methyl-3,5-dioxo-2,3,4,5-tetrahydro-[1,2,4]triazin-6-ylamino)-butoxy]-phenoxy}-2-methyl-propionate] | > 10 | ~10 | 
9 | CCCCCCCN(CCCOc1ccc(SC(C)(C)C(=O)OCC)cc1)c1nn(C)c(=O)n(C)c1=O [Example 53, Ethyl 2-(4-{3-[(2,4-Dimethyl-3,5-dioxo-2,3,4,5-tetrahydro-[1,2,4]triazin-6-yl)-heptyl-amino]-propoxy}-phenylsulfanyl)-2-methyl-propionate] | 1 to 3 |  | change in vivo at 2.5 mg/kg ([1]; read-out: Plasma cholesterol): -7%; change in vivo at 10 mg/kg [1, 2]: -28%; Plasma triglycerides ([1]; at 10 mg/kg): inactive at 10
10 | CCOC(=O)/C=C/Cn1nc(NCCc2ccc(OC(C)(C)C(=O)OCC)cc2)c(=O)n(CCCC(F)(F)F)c1=O [Example 104, Ethyl 4-[6-{2-[4-(1-ethoxycarbonyl-1-methyl-ethoxy)-phenyl]-ethylamino}-3,5-dioxo-4-(4,4,4-trifluoro-butyl)-4,5-dihydro-3H-[1,2,4]triazin-2-yl]-but-2-enoate] | 1 to 3 | > 10 | 
11 | CCCCCCCn1c(=O)c(NCCCOc2ccc(SC(C)(C)C(=O)OCC)cc2)nn(C)c1=O [Example 49, Ethyl 2-{4-[3-(4-heptyl-2-methyl-3,5-dioxo-2,3,4,5-tetrahydro-[1,2,4]triazin-6-ylamino)-propoxy]-phenylsulfanyl}-2-methyl-propionate] | > 10 | > 10 | 
12 | CCCCCCCN(CCCCOc1cccc(SC(C)(C)C(=O)OCC)c1)c1nn(C)c(=O)n(C)c1=O [Example 54, Ethyl 2-(3-{4-[(2,4-Dimethyl-3,5-dioxo-2,3,4,5-tetrahydro-[1,2,4]triazin-6-yl)-heptyl-amino]-butoxy}-phenylsulfanyl)-2-methyl-propionate] | > 10 |  | 
13 | CCCCCCCn1nc(NCCCCc2cccc(OC(C)(C)C(=O)OC(C)(C)C)c2)c(=O)n(CCCC(F)(F)F)c1=O [Example 83, Tert-butyl 2-(3-{4-[2-heptyl-3,5-dioxo-4-(4,4,4-trifluoro-butyl)-2,3,4,5-tetrahydro-[1,2,4]triazin-6-ylamino]-butyl}-phenoxy)-2-methyl-propionate] | > 10 |  | 

The next lines start with results.

Row | EC50 (human PPARα) [µM] | EC50 (human PPARγ) [µM] | Structure (SMILES) | also measured
14 | > 10 | 3 to 10 | CCCCCCCn1nc(NCCCc2cccc(OC(C)(C)C(=O)OCC)c2)c(=O)n(C)c1=O [Example 64, Ethyl 2-{3-[3-(2-heptyl-4-methyl-3,5-dioxo-2,3,4,5-tetrahydro-[1,2,4]triazin-6-ylamino)-propyl]-phenoxy}-2-methyl-propionate] | 
15 | > 10 | ~1 | CCCCCCCn1c(=O)c(NCCCCc2cccc(OC(C)(C)C(=O)OCC)c2)nn(CCC#N)c1=O [Example 86, Ethyl 2-(3-{4-[2-(2-cyano-ethyl)-4-heptyl-3,5-dioxo-2,3,4,5-tetrahydro-[1,2,4]triazin-6-ylamino]-butyl}-phenoxy)-2-methyl-propionate] | 
16 | ~3 | 1 to 3 | CCCCCCCn1nc(NCCc2cccc(OC(C)(C)C(=O)OCC)c2)c(=O)n(C)c1=O [Example 57, Ethyl 2-{3-[2-(2-heptyl-4-methyl-3,5-dioxo-2,3,4,5-tetrahydro-[1,2,4]triazin-6-ylamino)-ethyl]-phenoxy}-2-methyl-propionate] | 
17 | 1 to 3 | ~10 | CCCCCCCn1nc(NCCCc2cccc(OC(C)(C)C(=O)OCC)c2)c(=O)n(CCCCCCC)c1=O [Example 69, Ethyl 2-{3-[3-(2,4-diheptyl-3,5-dioxo-2,3,4,5-tetrahydro-[1,2,4]triazin-6-ylamino)-propyl]-phenoxy}-2-methyl-propionate] | 
18 | > 10 | ~10 | CCCCCCCn1nc(OCCc2cccc(OC(C)(C)C(=O)OCC)c2)c(=O)n(C)c1=O [Example 2, Ethyl 2-{3-[2-(2-heptyl-4-methyl-3,5-dioxo-2,3,4,5-tetrahydro-[1,2,4]triazin-6-yloxy)-ethyl]-phenoxy}-2-methyl-propionate] | 
19 | ~1 |  | CCCCCCCn1c(=O)c(NCCCc2cccc(OC(C)(C)C(=O)OCC)c2)nn(C)c1=O [Example 67, Ethyl 2-{3-[3-(4-heptyl-2-methyl-3,5-dioxo-2,3,4,5-tetrahydro-[1,2,4]triazin-6-ylamino)-propyl]-phenoxy}-2-methyl-propionate] | change in vivo at 10 mg/kg [1, 2]: -14%; change in vivo at 10 mg/kg [1, 3]: -23%
20 | 0.3 to 1 | 1 to 3 | CCCCCCCn1c(=O)c(OCCCc2cccc(OC(C)(C)C(=O)OCC)c2)nn(C)c1=O [Example 7, Ethyl 2-{3-[3-(4-heptyl-2-methyl-3,5-dioxo-2,3,4,5-tetrahydro-[1,2,4]triazin-6-yloxy)-propyl]-phenoxy}-2-methyl-propionate] | 
21 | ~3 | ~3 | CCCCCCCn1nc(OCCCOc2cccc(OC(C)(C)C(=O)OCC)c2)c(=O)n(C)c1=O [Example 33, Ethyl 2-{3-[3-(2-heptyl-4-methyl-3,5-dioxo-2,3,4,5-tetrahydro-[1,2,4]triazin-6-yloxy)-propoxy]-phenoxy}-2-methyl-propionate] | 
22 |  | > 10 | CCCCCCCn1nc(OCCc2ccc(OC(C)(C)C(=O)OCC)cc2)c(=O)n(C)c1=O [Example 25, Ethyl 2-{4-[2-(2-heptyl-4-methyl-3,5-dioxo-2,3,4,5-tetrahydro-[1,2,4]triazin-6-yloxy)-ethyl]-phenoxy}-2-methyl-propionate] | 
23 | 1 to 3 |  | CCCCCCCn1c(=O)c(NCCc2cccc(OC(C)(C)C(=O)OCC)c2)nn(C)c1=O [Example 59, Ethyl 2-{3-[2-(4-heptyl-2-methyl-3,5-dioxo-2,3,4,5-tetrahydro-[1,2,4]triazin-6-ylamino)-ethyl]-phenoxy}-2-methyl-propionate] | change in vivo at 2.5 mg/kg ([1]; read-out: Plasma cholesterol): -37%; change in vivo at 2.5 mg/kg ([1]; read-out: Plasma triglycerides): -13%
